Structures can show the parent of a compound that is named as a salt. Bounds are passed on as bounds.

In one data set the target is 5-HT1D binding site. The data set can be described thus: 5-HT1D binding site affinity (tritiated serotonin; method of Heuring and Peroutka with minor modifications). The conditions noted are these: in vitro. How it is done:
Determination of 5-HT1D binding properties was accomplished employing methodology such as that described by Heuring and Peroutka, J. Neurosci., 7(3), 1987, 894-903; with only minor modifications. In vitro IC50 (nM) test values were determined for the compounds of this invention employing tritiated serotonin.
For orientation: IC50 means the midpoint of a concentration-inhibition curve. Compound `CCS(=O)(=O)Nc1ccc2[nH]cc(CCCN3CCN(c4ncncc4OC)C(C)C3)c2c1` (stereo not shown) [Example 70, 1-[3-(5-Ethanesulfonylamino-1H-indol-3-yl)propyl]-4-(5-methoxy-4-pyrimidinyl)-3-methylpiperazine] registered an IC50 of 17.1 nM.
Still for that read-out and setting: with `CCS(=O)(=O)Nc1ccc2[nH]cc(CCCN3CCN(c4ncncc4OC)CC3)c2c1` [Example 67] the figure was 13.7 nM.
Consider `COc1cncnc1N1CCN(CCCc2c[nH]c3ccc(F)cc23)CC1` [Example 60, 3-(3-(4-(5-methoxy-4-pyrimidinyl)-1-piperazinyl)propyl)-5-fluoro-1H-indole hydrochloride], for which the concentration for half-maximal inhibition (IC50) was 3 nM.
`CCC(CCc1c[nH]c2ccccc12)N1CCN(c2ncncc2OC)CC1` (stereo not shown) [Example 54, 3-[3-[4-(5-Methoxy-4-pyrimidinyl)-1-piperazinyl]pentyl]indole] had a half-maximal inhibitory concentration (IC50) of 20.5 nM. Compared with the last compound, the IC50 is about 6.8-fold higher.
Same read-out and setting: under `COc1cncnc1N1CCN(CCC(C)c2c[nH]c3ccccc23)CC1` (stereo not shown) [Example 53, 1-[3-(1H-indol-3-yl)butyl]-4-(5-methoxy-4-pyrimidinyl)piperazine] stands 5 nM; under `COc1cncnc1N1CCN(CCCc2c[nH]c3ccccc23)CC1C` (stereo not shown) [Example 62], 4.2 nM.
Same read-out and setting: with `CCS(=O)(=O)N(C)c1ccc2[nH]cc(CCCN3CCN(c4ncncc4OC)C(C)C3)c2c1` (stereo not shown) [Example 69] the figure was 19.1 nM; with `COc1cncnc1N1CCN(CCCc2c[nH]c3ccc(N(C)S(C)(=O)=O)cc23)CC1` [Example 65], 4.9 nM; with `COc1ccc2[nH]cc(CCCN3CCN(c4ncncc4OC)CC3)c2c1` [Example 73], 1.1 nM.
Still for that read-out and setting: with `CCS(=O)(=O)N(C)c1ccc2[nH]cc(CCCN3CCN(c4ncncc4OC)CC3)c2c1` [Example 68] the figure was 12.9 nM; with `CCOc1cncnc1N1CCN(CCCc2c[nH]c3ccccc23)CC1` [Example 52, 4-(5-Ethoxy-4-pyrimidinyl)-1-[3-(1H-indol-3-yl)propyl]piperazine hydrochloride hydrate], 2 nM.
In the case of `COc1cncnc1N1CCN(CCCc2c[nH]c3c(F)ccc(F)c23)CC1` [Example 75], the 50% inhibitory concentration (IC50) turned out to be 5.1 nM.
The same measure, in the same setting: under `CCOc1ccc2[nH]cc(CCCN3CCN(c4ncncc4OC)CC3)c2c1` [Example 71] stands 2.2 nM; under `COc1cncnc1N1CCN(CCCc2c[nH]c3ccc(OCc4ccccc4)cc23)CC1` [Example 72], 14.3 nM; under `COc1cncnc1N1CCN(CCCc2c[nH]c3ccc(NS(C)(=O)=O)cc23)CC1` [Example 63], 5.2 nM.
As to `COc1cncnc1N1CCN(CCCc2c[nH]c3ccc(O)cc23)CC1` [Example 55, 1-[3-(5-Hydroxy-1H-indol-3-yl)propyl]-4-(5-methoxy-4-pyrimidinyl)piperazine], the 50% inhibitory concentration (IC50) stood at 0.8 nM.
`COc1cncnc1N1CCN(CCCc2c[nH]c3c(F)cc(F)cc23)CC1` [Example 76] registered an IC50 of 8.1 nM.
The compound `COc1cncnc1N1CCN(CCCc2c[nH]c3cc(F)c(F)cc23)CC1` [Example 74] came in with an IC50 of 29 nM.

System in another data set: not given
Assay: not given
Details: not given
What is called melting point is the temperature, or range, at which the solid turns liquid. Regarding `COc1cncnc1N1CCN(CCCc2c[nH]c3c(F)ccc(F)c23)CC1` [Example 75], the melting point was in the range of 160 to 165 °C.
`CCOc1ccc2[nH]cc(CCCN3CCN(c4ncncc4OC)CC3)c2c1` [Example 71] came in with a melting point of 112 to 114 °C.
As for `COc1cncnc1N1CCN(CCCc2c[nH]c3ccccc23)CC1C` (stereo not shown) (as salt: HCl) [Example 62], the melting point is 185 °C (dec.).
Same read-out and setting: under `COc1ccc2[nH]cc(CCCN3CCN(c4ncncc4OC)CC3)c2c1` (as salt: HCl) [Example 73] stands 130 to 150 °C (dec.); under `COc1cncnc1N1CCN(CCCc2c[nH]c3ccc(C(C)=O)cc23)CC1.Cl`, 215 to 217 °C (dec.).
`COc1cncnc1N1CCN(CCCc2c[nH]c3ccc(N(C)S(C)(=O)=O)cc23)CC1` (as salt: HCl) [Example 65]: the melting point lay within 227 to 230 °C.
Take `COc1cncnc1N1CCN(CCCc2c[nH]c3ccc(N(C)S(=O)(=O)C(F)(F)F)cc23)CC1` (as salt: salt) [Example 26, 1-[3-[5-[Methyl(trifluoromethanesulfonyl)amino]-1H-indol-3-yl]propyl]-4-(5-methoxy-4-pyrimidinyl)piperazine]: the melting point was above 230 °C.
Same read-out and setting: with `COc1cncnc1N1CCN(CCCc2c[nH]c3ccc(NS(C)(=O)=O)cc23)CC1` (as salt: HCl) [Example 63] the figure was 150 to 152 °C; with `COc1cncnc1N1CCN(CCCc2c[nH]c3cc(F)c(F)cc23)CC1` [Example 74], 102 to 104 °C; with `COc1cncnc1N1CCN(CCCc2c[nH]c3ccc(OCc4ccccc4)cc23)CC1` (as salt: HCl) (hydrate or solvate) [Example 72], 180 °C (dec.).
The same measure, in the same setting: with `CCS(=O)(=O)N(C)c1ccc2[nH]cc(CCCN3CCN(c4ncncc4OC)CC3)c2c1` (as salt: HCl) [Example 68] the figure was 223 to 225 °C.
Take `COc1cncnc1N1CCN(CCCc2c[nH]c3ccc(CCS(C)(=O)=O)cc23)CC1` [Example 50, 4-(5-Methoxy-4-pyrimidinyl)-1-[3-[5-[2-(methylsulfonyl)ethyl]-1H-indol-3-yl]propyl]piperazine]: the melting point is 153 to 154 °C.
Same read-out and setting: with `COc1cncnc1N1CCN(CCCc2c[nH]c3ccc(F)cc23)CC1` (as salt: hydrochloride) [Example 60, 3-(3-(4-(5-methoxy-4-pyrimidinyl)-1-piperazinyl)propyl)-5-fluoro-1H-indole hydrochloride] the figure was 119 to 122 °C; with `CCS(=O)(=O)N(Cc1ccccc1)Cc1ccc2[nH]cc(CCCN3CCN(c4ncncc4OC)CC3)c2c1` [Example 39, 4-(5-Methoxy-4-pyrimidinyl)-1-[[5-[[phenylmethyl(ethylsulfonyl)amino]-methyl]-1H-indol-3-yl]propyl]piperazine], 73 to 75 °C.
On the same count and under the same terms, under `CCS(=O)(=O)N(C)Cc1ccc2[nH]cc(CCCN3CCN(c4ncncc4OC)CC3)c2c1` [Example 38, 4-(5-Methoxy-4-pyrimidinyl)-1-[[5-[[methyl(ethylsulfonyl)amino]-methyl]-1H-indol-3-yl]propyl]piperazine] stands 113 to 115 °C.
The same measure, in the same setting: with `CCCCNC(=O)c1ccc2[nH]cc(CCCN3CCN(c4ncncc4OC)CC3)c2c1.Cl` the figure was 180 to 185 °C.

The values above are taken from patent publication US20090281114A1, “INDOLYLALKYL DERIVATIVES OF PYRIMIDINYLPIPERAZINE AND METABOLITES THEREOF FOR TREATMENT OF ANXIETY, DEPRESSION, AND SEXUAL DYSFUNCTION” (Fabre-Kramer Pharmaceuticals, Inc., priority 2008, published 2009).
